The experiment has as its system white blood cells. Briefly: Immune cell selective uptake (immune selectivity ratio) in blood cell preparations. Type of experiment: cell-based, mammalian. Details: key: Y: Compounds exhibiting high uptake; N: similar structures that do not. Conditions: uptake in white cells from blood cell mix; Y/N. On the procedure: Freshly drawn heparinised blood or buffy coat preparations are used for the determination of immune cell partition ratios. Buffy coat preparations are preferred. These may be obtained from donor blood by simple centrifugation of whole blood (4795 g for 10 minutes). Following centrifugation, plasma is collected from the surface, after which immune cells are expressed from the donor bags along with the erythrocytes lying immediately below the leukocyte layer. This ensures high yields and a sufficient population of erythrocytes for partition. 5 ml of the resulting cell suspension are dispensed into T25 culture flasks. Substrates are added to a final concentration between 1 and 10 μM and the suspensions incubated at 37° C., in a 5% CO2 atmosphere. For analysis of uptake kinetics, samples are withdrawn at 0, 2, 5, 10, 30, 60, 90, 180, or 240 min after substrate addition. For screening purposes, samples are taken at 0 and 120 minutes.
Cell fractions were prepared using density gradient centrifugation. Mononuclear cells and polymorphonuclear cells are separated from erythrocytes essentially by layering the cell suspension on a viscous medium typically composed of a solution containing Ficoll or similar (commercial suppliers include: Lymphoprep, Axis Shield, 1031966; Lymphoflot HLA, 824010; or PMN Separation Medium Robbins Scientific 1068-00-0). The layered suspension is then centrifuged at 600 g, 20 min, after which the cell fractions and the plasma (incubation medium) fraction are removed by gentle aspiration, washed twice in PBS buffer, followed by estimation of the cell number and pellet volume.
Uptake of fluorescent compounds is monitored using fluorescence microscopy. Excitation and emission wavelengths depend of the fluorescence label in use. A typical label is a methoxy coumarin for which the appropriate wavelengths are 360 and 450 nm respectively. Fluorescent analogs of the compounds under study permit the estimation of appropriate uptake intervals as well as the likely intracellular distribution of the compounds. Fluorescent analogs also allow the estimation of losses in washing or other cell manipulations.
Cell preparations are lysed in water and the debris sedimented at 16100 g, 10 min. The supernatant is recovered and sub-sampled for protein and DNA content. Protein in the supernatant is precipitated by bringing the solution to […] ethanol and centrifuging again at 16100 g, 10 min.
Compound uptake is normalized according to cytoplasmic volume of cells in order to obtain the average concentration in the cells. Cell volume is estimated by correlation of DNA, protein or haem content of lysed cell aliquots to cell number and packed volume prior to lysis.
Cell lysates are analysed using a HP 1100 HPLC System (Agilent Technologies, Waldbronn, Germany) with a Kromasil 3.5μ C18, 50×2.0 mm column and guard cartridge system (both, Phenomenex, Aschaffenburg, Germany) run at 30° C. A gradient elution was performed using water, 0.05% formic acid (A) and acetonitrile 0.05% formic acid (B) (0 min. 5% B, 2.5 min 5% B, 2.8 min 40% B, 10.5 min 85% B, 12.0 min 95% B, 16.5 min 95% B) at a flow rate of 300 μl/min. Re-equilibration of column was at 5% B, at a flow rate of 750 μl/min for 2.4 min. The HPLC-eluate from retention time 0.0 min to 2.5 min was directed directly to waste. Detection was via a UV cell at 214 nm followed by a ⅙ split to an An API-qTOF 1 (Micromass, Manchester, UK) mass spectrometer, (calibrated daily using a mixture of NaI, RbI and CsI). The mass spectrometer is routinely operated in the positive electrospray ionization mode using the following settings: Capillary voltage 4000 V; cone voltage 30 V; RF Lens offset 0.38 V; source block temperature 80° C.; desolvation gas temperature 140° C.; desolvation gas 240 l/h; LM/HM Resolution 0.0; Collision energy 4.0 V; Ion energy 5.0 V.
Masses are monitored according to the known or expected M/Z ratios. […]
Take `CN(C)c1cccc2c(S(=O)(=O)NC(C)(CO)CO)cccc12` [Compound 32]: the Concentrative uptake result is given as “N”. For `COc1ccc(/C(=C\C(C)=O)CSc2nnc(-c3ccc([NH+]([O-])O)o3)s2)c(C)c1` (stereo not drawn) [Compound 38], the Concentrative uptake result was “N”. In the case of `O=C(CSc1ncnc2[nH]cnc12)NCCNc1cccc2c(S(=O)(=O)O)cccc12` [Compound 15], the Concentrative uptake result is “Y”. On to `Cc1cc(=O)oc2cc(SCC(=O)NCCN3CCOCC3)ccc12` [Compound 23], for which the Concentrative uptake result was “Y”.

`COc1cc(C)c(/C(=C\C(C)=O)CC(NC(=O)C(N)CCC(=O)O)C(=O)O)cc1OC` (stereo not drawn) [Compound 14]: the Concentrative uptake entry is “N”.

As to `CN(C)c1cccc2c(S(=O)(=O)Nc3cc(O)[nH]n3)cccc12` [Compound 27], the Concentrative uptake result was “Y”. With `CN(C)c1cccc2c(S(=O)(=O)NCCCN3CCCC3=O)cccc12` [Compound 37], the Concentrative uptake result was “N”.

Turning to `CC(C)(C)OC(=O)NC(CSCC(=O)NCCNc1cccc2c(S(=O)(=O)O)cccc12)C(=O)O` (stereo not drawn) [Compound 8], the Concentrative uptake result is on record as “Y”.

For `COc1cc2oc(=O)cc(CC(NC(=O)CN)C(=O)O)c2cc1OC` (stereo not drawn) [Compound 10], the Concentrative uptake entry is reported as “N”. Take `CN(C)c1cccc2c(S(=O)(=O)NN3CCN(CCO)CC3)cccc12` [Compound 26]: the Concentrative uptake entry is on record as “Y”.

In the case of `Cc1cc(=O)oc2cc(SCC(=O)NN3CCN(CCO)CC3)ccc12` [Compound 24], the Concentrative uptake result is on record as “N”. For `CN(C)c1cccc2c(S(=O)(=O)NNC(=N)N)cccc12` [Compound 11], the Concentrative uptake entry is “N”. Take `Cc1cc(=O)oc2cc(SCC(=O)NN3CCOCC3)ccc12` [Compound 25]: the Concentrative uptake result is given as “N”. Turning to `CCN(CC)c1ccc(NS(=O)(=O)c2cccc3c(N(C)C)cccc23)cc1` [Compound 36], the Concentrative uptake result is “N”. For `CN(C)c1cccc2c(S(=O)(=O)N3CCN(CCO)CC3)cccc12` [Compound 31], the Concentrative uptake result is recorded as “N”.

`CC[C@H]1OC(=O)[C@H](C)[C@@H](O[C@H]2C[C@@](C)(OC)[C@@H](O)[C@H](C)O2)[C@H](C)[C@@H](OC2O[C@H](C)C[C@H](N(C)C)[C@H]2O)[C@](C)(O)C[C@@H](C)CN(Cc2cc(=O)oc3cc(OC)ccc23)[C@H](C)[C@@H](O)[C@]1(C)O` (stereo partly drawn) [Compound 7]: the Concentrative uptake entry is recorded as “Y”. For `COc1ccc2c(CSc3ncnc4[nH]cnc34)cc(=O)oc2c1` [Compound 9] the value was “N”; for `COc1cc(C)c(/C(=C\C(C)=O)CC(N)C(=O)O)cc1OC` (stereo not drawn) [Compound 4], “Y”. On to `CC[C@H]1OC(=O)[C@H](C)[C@@H](OC2C[C@@](C)(OC)[C@@H](O)[C@H](C)O2)[C@H](C)[C@@H](OC2O[C@H](C)C[C@H](N(C)C)[C@H]2O)[C@](C)(O)C[C@@H](C)/C(=N/OCc2cc(=O)oc3cc(OC)c(OC)cc23)[C@H](C)[C@@H](O)[C@]1(C)O` (stereo partly drawn) [Compound 3], for which the Concentrative uptake entry is listed as “Y”.

As to `CN(C)c1cccc2c(S(=O)(=O)N(CCO)CCO)cccc12` [Compound 33], the Concentrative uptake result is reported as “N”.

`COc1cc(C)c(/C(=C\C(C)=O)CC(NC(=O)CCN)C(=O)O)cc1OC` (stereo not drawn) [Compound 12]: the Concentrative uptake result was “N”.

Turning to `Cc1cc(=O)oc2cc(SCC(=O)NC3CCOC3=O)ccc12` (stereo not drawn) [Compound 22], the Concentrative uptake result is “Y”. In the case of `CN(C)c1cccc2c(S(=O)(=O)N3CCN(c4ccc(O)cc4)CC3)cccc12` [Compound 30], the Concentrative uptake entry is reported as “N”. In the case of `CN(C)c1cccc2c(S(=O)(=O)Nc3ccc(C(=O)O)cc3O)cccc12` [Compound 35], the Concentrative uptake result is “N”.

Turning to `COC(=O)C1CN(S(=O)(=O)c2cccc3c(N(C)C)cccc23)CCC1=O` (stereo not drawn) [Compound 29], the Concentrative uptake result is given as “N”. With `O=c1ccc2cc(O[C@@H]3O[C@H](CO)C(O)[C@H](O)C3O)c(O)cc2o1` (stereo partly drawn) [Compound 1], the Concentrative uptake result was “Y”.

Consider `CN(C)c1cccc2c(S(=O)(=O)Nc3c[nH]c(=O)[nH]c3=O)cccc12` [Compound 34], for which the Concentrative uptake entry is on record as “N”.
